Laboratory results from US8076368B2, “Percutaneous absorption type cerebral protective agent” (Lead Chemical Co., Ltd,, priority 2003, dated 2011).

System: rat-transient focal cerebral ischemia model
Test: Rat-transient focal cerebral ischemia model (middle cerebral artery closure 2 h, TTC staining)
Type: in vivo
Conditions: injectable solution, intravenously two times (immediately after and 30 minutes after restoration of blood flow), 3 mg/kg

CC1=NN(c2ccccc2)C(=O)C1 [3-methyl-1-phenyl-2-pyrazolin-5-one] was tested, and the “effect on area of cerebral infarction compared with the control group (in words)” value was “almost same as that of the control group”.
